Results published in the supplement of paper PMC10307832.

What was measured:
Assay in all cases: relative viability (nuclei count vs DMSO), 5 days (fraction); higher = more cells survive
Crenolanib + Crizotinib = compound: CC1(COc2ccc3c(c2)ncn3-c2ccc3cccc(N4CCC(N)CC4)c3n2)COC1 [Crenolanib] + C[C@@H](Oc1cc(-c2cnn(C3CCNCC3)c2)cnc1N)c1c(Cl)ccc(F)c1Cl [Crizotinib] (partner 1 µM)
Summary of the method: (§1)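 For relative viability, nuclei counts in treated wells were divided by those in vehicle wells. Lung cancer cell lines had been pin-tool dosed in 1536-well plates the day after seeding and cultured for 5 days, then fixed and stained in one step (final 0.05% Triton X-100, 1% formaldehyde, 1 ug/ml Hoechst) and imaged at 4×. Doses were one drug alone or a fixed anchor-drug dose plus five library-drug doses (not always all listed) in √10 steps, and values are duplicate-plate medians.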

Tivantinib + Dasatinib = compound: O=C1NC(=O)[C@@H](c2cn3c4c(cccc24)CCC3)[C@@H]1c1c[nH]c2ccccc12 [Tivantinib] + Cc1nc(Nc2ncc(C(=O)Nc3c(C)cccc3Cl)s2)cc(N2CCN(CCO)CC2)n1 [Dasatinib] (partner 0.075 µM)
Summary of the method: as §1

Tivantinib + Luminespib = compound: O=C1NC(=O)[C@@H](c2cn3c4c(cccc24)CCC3)[C@@H]1c1c[nH]c2ccccc12 [Tivantinib] + CCNC(=O)c1noc(-c2cc(C(C)C)c(O)cc2O)c1-c1ccc(CN2CCOCC2)cc1 [Luminespib] (partner 0.01 µM)
Summary of the method: as §1

Tivantinib + Navitoclax = compound: O=C1NC(=O)[C@@H](c2cn3c4c(cccc24)CCC3)[C@@H]1c1c[nH]c2ccccc12 [Tivantinib] + CC1(C)CCC(c2ccc(Cl)cc2)=C(CN2CCN(c3ccc(C(=O)NS(=O)(=O)c4ccc(N[C@H](CCN5CCOCC5)CSc5ccccc5)c(S(=O)(=O)C(F)(F)F)c4)cc3)CC2)C1 [Navitoclax] (partner 0.5 µM)
Summary of the method: as §1

Row | Cell Line | relative viability (Crenolanib + Crizotinib; first compound 0.01 µM) | relative viability (Crenolanib + Crizotinib; first compound 0.03162 µM) | relative viability (Crenolanib + Crizotinib; first compound 0.1 µM) | relative viability (Crenolanib + Crizotinib; first compound 0.3162 µM) | relative viability (Crenolanib + Crizotinib; first compound 1 µM) | relative viability (Tivantinib + Dasatinib; first compound 0.01 µM) | relative viability (Tivantinib + Dasatinib; first compound 0.03162 µM) | relative viability (Tivantinib + Dasatinib; first compound 0.1 µM) | relative viability (Tivantinib + Dasatinib; first compound 0.3162 µM) | relative viability (Tivantinib + Luminespib; first compound 0.01 µM) | relative viability (Tivantinib + Luminespib; first compound 0.03162 µM) | relative viability (Tivantinib + Luminespib; first compound 0.1 µM) | relative viability (Tivantinib + Luminespib; first compound 0.3162 µM) | relative viability (Tivantinib + Navitoclax; first compound 0.01 µM) | relative viability (Tivantinib + Navitoclax; first compound 0.03162 µM) | relative viability (Tivantinib + Navitoclax; first compound 0.1 µM) | relative viability (Tivantinib + Navitoclax; first compound 0.3162 µM)
1 | NCI-H460 | 0.935 | 0.924 | 0.904 | 1.19 | 0.831 | 0.461 | 0.35 | 0.484 | 0.492 | 0.0321 | 0.0359 | 0.0227 | 0.0374 | 1.06 | 1.02 | 0.988 | 1.13
2 | NCI-H520 | 0.743 | 0.915 | 0.802 | 0.933 | 0.983 | 0.204 | 0.185 | 0.193 | 0.221 | 0.212 | 0.218 | 0.209 | 0.198 | 1.12 | 1.17 | 0.995 | 1.1
3 | NCI-H596 | 1.01 | 1.07 | 0.87 | 0.904 | 1.04 | 0.486 | 0.543 | 0.635 | 0.619 | 1.01 | 1.01 | 1.08 | 0.935 | 1.07 | 1.02 | 0.948 | 0.73
4 | NCI-H647 | 1.07 | 1.03 | 1.03 | 1.01 | 1.03 | 0.188 | 0.194 | 0.149 | 0.195 | 0.155 | 0.141 | 0.14 | 0.135 | 1.06 | 1.27 | 1.07 | 0.758
5 | NCI-H727 | 0.858 | 0.956 | 0.806 | 0.973 | 0.824 | 0.529 | 0.344 | 0.306 | 0.275 | 0.334 | 0.37 | 0.514 | 0.253 | 0.412 | 0.432 | 0.311 | 
6 | NCI-H838 | 0.883 | 0.855 | 0.821 | 0.872 | 0.772 | 0.324 | 0.296 | 0.274 | 0.276 | 0.276 | 0.308 | 0.302 | 0.335 | 1.06 | 1.13 | 1.06 | 1.2
7 | NCI-H1355 | 1.15 | 1.07 | 0.973 | 1.06 | 0.894 | 0.666 | 0.668 | 0.675 | 0.564 | 0.787 | 0.687 | 0.726 | 0.723 | 0.879 | 0.966 | 0.949 | 0.808
8 | NCI-H1437 | 1.02 | 1.04 | 1 | 1.04 | 0.897 | 0.427 | 0.334 | 0.429 | 0.376 | 1.13 | 1.15 | 1.1 | 1.06 | 1.1 | 1.11 | 0.968 | 1.1
9 | NCI-H1650 | 1.08 | 0.917 | 0.916 | 1.1 | 0.696 | 0.41 | 0.289 | 0.276 | 0.313 | 0.203 | 0.191 | 0.203 | 0.192 | 1.33 | 1.33 | 0.987 | 0.929
10 | NCI-H1651 | 0.895 | 0.924 | 0.855 | 0.937 | 0.826 | 0.386 | 0.354 | 0.391 | 0.475 | 0.768 | 1.02 | 0.764 | 0.77 | 1.02 | 0.928 | 1.03 | 0.938
11 | NCI-H1666 | 1.05 | 0.917 | 1.01 | 0.885 | 1 | 0.765 | 0.785 | 0.77 | 0.742 | 0.963 | 1.05 | 0.944 | 0.939 | 0.94 | 0.79 | 0.961 | 0.568
12 | NCI-H1734 | 0.684 | 0.708 | 0.657 | 0.778 | 0.693 | 0.425 | 0.472 | 0.436 | 0.478 | 0.206 | 0.198 | 0.0957 | 0.191 | 0.849 | 0.86 | 0.802 | 0.896
13 | NCI-H1755 | 0.835 | 0.932 | 0.832 | 0.917 | 0.854 | 0.482 | 0.437 | 0.401 | 0.39 | 0.478 | 0.473 | 0.4 | 0.437 | 1.02 | 0.954 | 0.934 | 1.03
14 | NCI-H1792 | 1.05 | 0.958 | 0.933 | 1.17 | 0.943 | 0.902 | 0.714 | 0.675 | 0.481 | 0.479 | 0.323 | 0.338 | 0.391 | 0.619 | 0.66 | 0.651 | 0.816
15 | NCI-H1915 | 0.9 | 0.896 | 0.868 | 0.856 | 0.855 | 0.305 | 0.277 | 0.294 | 0.334 | 0.883 | 0.775 | 0.722 | 0.765 | 0.789 | 0.796 | 0.771 | 0.798
16 | NCI-H1944 | 1.05 | 1.19 | 1.03 | 1.21 | 1.07 | 0.219 | 0.196 | 0.211 | 0.208 | 0.712 | 0.609 | 0.697 | 0.608 | 0.975 | 0.997 | 0.992 | 0.778
17 | NCI-H1975 | 1 | 1.15 | 0.978 | 1.03 | 0.892 | 0.357 | 0.372 | 0.276 | 0.281 | 0.197 | 0.307 | 0.17 | 0.218 | 1.03 | 1.07 | 1.12 | 1.16
